Values of other authors in US20230201385A1, “[…] OF BACTERIA AND VIRUSES” (MULTI-MAGNETICS INCORPORATED, priority 2020, published 2023).

Legend:
[1] = system: Enterobacterales infections; conditions: murine models
[2] = dog, i.v.

SMILES: OC[C@@H](O)[C@@H](O)[C@H](O)[C@@H]([18F])CO [^18F-FDS, 2-Deoxy-2[^18F]fluoro-D-sorbitol]
- Accumulation in cells (Enterobacterales): accumulate in Enterobacterales but not in healthy mammalian or cancer cells
- Detection of infections by PET [1]: specifically detect Enterobacterales infections

SMILES: O=P([O-])([O-])O.O=P([O-])([O-])O.[89Zr+4] [^89Zr-phosphate]
- Duration of acceptable bone visualization [2]: 20 days
- Mean standard uptake value (SUV) in bone ([2]; averaged over days 8-16): ~10
- Mean standard uptake value (SUV) in kidneys ([2]; averaged over days 8-16): ~3
- Mean standard uptake value (SUV) in liver ([2]; averaged over days 8-16): ~3
- Mean standard uptake value (SUV) in lungs ([2]; averaged over days 8-16): ~3
